Test results: ChEMBL document CHEMBL1151120, “Plant antimutagenic agents, 3. Coumarins” (J Nat Prod, 1988)

Experiments:
Assay type in all cases: functional, Salmonella enterica subsp. enterica serovar Typhimurium, T98
Salmonella typhimurium [1] = experiment: Antimutagenic activity in Salmonella Typhimurium […] assessed as inhibition of 2-nitroflorene-induced mutation at 150 ug/plate after 72 hrs
Salmonella typhimurium [2] = experiment: Antimutagenic activity in Salmonella Typhimurium […] assessed as inhibition of 2-nitroflorene-induced mutation at 300 ug/plate after 72 hrs
Salmonella typhimurium [3] = experiment: Antimutagenic activity in Salmonella Typhimurium […] assessed as inhibition of acetylaminofluorene-induced mutation at 600 ug/plate after 72 hrs in presence of Ames S-9 fraction
Salmonella typhimurium [4] = experiment: Antimutagenic activity in Salmonella Typhimurium […] assessed as inhibition of acetylaminofluorene-induced mutation at 300 ug/plate after 72 hrs in presence of Ames S-9 fraction
Salmonella typhimurium [5] = experiment: Antimutagenic activity in Salmonella Typhimurium […] assessed as inhibition of 2-aminoanthracene-induced mutation at 600 ug/plate after 72 hrs in presence of Ames S-9 fraction
Salmonella typhimurium [6] = experiment: Antimutagenic activity in Salmonella Typhimurium […] assessed as inhibition of 2-aminoanthracene-induced mutation at 300 ug/plate after 72 hrs in presence of Ames S-9 fraction
Salmonella typhimurium [7] = experiment: Antimutagenic activity in Salmonella Typhimurium […] assessed as inhibition of benzo[a]pyrene-induced mutation at 300 ug/plate after 72 hrs in presence of Ames S-9 fraction
Salmonella typhimurium [8] = experiment: Antimutagenic activity in Salmonella Typhimurium […] assessed as inhibition of 2-nitroflorene-induced mutation at 600 ug/plate after 72 hrs
Salmonella typhimurium [9] = experiment: Antimutagenic activity in Salmonella Typhimurium […] assessed as inhibition of benzo[a]pyrene-induced mutation at 600 ug/plate after 72 hrs in presence of Ames S-9 fraction
Salmonella typhimurium [10] = experiment: Antimutagenic activity in Salmonella Typhimurium […] assessed as inhibition of 2-aminoanthracene-induced mutation at 150 ug/plate after 72 hrs in presence of Ames S-9 fraction
Salmonella typhimurium [11] = experiment: Antimutagenic activity in Salmonella Typhimurium […] assessed as inhibition of acetylaminofluorene-induced mutation at 150 ug/plate after 72 hrs in presence of Ames S-9 fraction
Salmonella typhimurium [12] = experiment: Antimutagenic activity in Salmonella Typhimurium […] assessed as inhibition of benzo[a]pyrene-induced mutation at 150 ug/plate after 72 hrs in presence of Ames S-9 fraction

Row | Structure (SMILES) | inhibition (INH) (Salmonella typhimurium [1]) [%] | inhibition (INH) (Salmonella typhimurium [2]) [%] | inhibition (INH) (Salmonella typhimurium [3]) [%] | inhibition (INH) (Salmonella typhimurium [4]) [%] | inhibition (INH) (Salmonella typhimurium [5]) [%] | inhibition (INH) (Salmonella typhimurium [6]) [%] | inhibition (INH) (Salmonella typhimurium [7]) [%] | inhibition (INH) (Salmonella typhimurium [8]) [%] | inhibition (INH) (Salmonella typhimurium [9]) [%] | inhibition (INH) (Salmonella typhimurium [10]) [%] | inhibition (INH) (Salmonella typhimurium [11]) [%] | inhibition (INH) (Salmonella typhimurium [12]) [%]
1 | COc1c2occc2cc2ccc(=O)oc12 [METHOXSALEN] | 5 | 39 | 39 | 21 | 44 | 0 | 76 | 25 | 86 | 0 | 0 | 58
2 | COc1ccc2ccc(=O)oc2c1CC=C(C)C [OSTHOLE] | 29 | 55 | 74 | 56 | 68 | 0 | 49 | 80 | 54 | 0 | 51 | 13
3 | O=c1ccc2ccccc2o1 [COUMARIN] | 24 | 17 | 36 | 28 | 22 | 0 | 16 | 73 | 53 | 0 | 5 | 10
4 | O=c1ccc2ccc(O)cc2o1 [UMBELLIFERONE] |  |  |  |  | 14 |  |  |  |  |  |  | 
5 | O=c1ccc2cc3ccoc3cc2o1 [PSORALEN] |  |  |  |  | 60 |  |  |  |  |  |  | 
6 | COc1c2ccoc2cc2oc(=O)ccc12 [BERGAPTEN] | 27 | 41 | 0 | 0 | 23 | 0 | 67 | 40 | 75 | 0 | 0 | 61
7 | CC(C)=CCOc1c2occc2cc2ccc(=O)oc12 [PENTOSALEN] | 22 | 43 |  | 56 | 81 | 0 | 87 | 58 | 90 | 0 | 35 | 86
